The results in this text go back to publication PMC8129133, “Polymer-free corticosteroid dimer implants for controlled and sustained drug delivery” (Nature Communications, 2021).

For data set [1], the system named is lipopolysaccharide (LPS)-induced model of uveitis in a rat eye. The experiment in a line: Rat uveitis model. The format is in vivo, Brown Norway rats. As to conditions: for Retinal Thickness (µm): single eyes, Fig 7e. How it is done:
Sample preparation. Dex-TEG-Dex was weighed on a stainless steel coupon and transferred to a heat press (Carver Laboratory Press). Once melted, a polytetrafluoroethylene (PTFE) template was placed on the melt and pressure was applied for 2 min. Samples were cooled to room temperature prior to removal from the PTFE mold, yielding implants with 23 G diameter × 1 mm length. Samples were loaded into appropriate-sized needles (23 G), packaged, and sterilized by ethylene oxide gas.
LPS stimulation and implantation. […] Animals were first sedated in an isoflurane gas chamber before being anaesthetized through an intraperitoneal injection of ketamine (100 mg/kg) and xylazine (10 mg/kg) solution. One day prior to LPS stimulation, eyes were prepared with topical anesthetic eye drops (Alcaine, 0.5%, Alcon) and pupils were dilated with application of one drop of 1% tropicamide (Alcon) on each cornea prior to anesthesia. Implants were then injected with a 23 G needle into the vitreous humor of rat eyes. Negative control animals received a sham injection, while the positive control group received a sham injection as well as Dex eye drops 4× daily (Maxidex 0.1%, Alcon). One day after test article administration, each rat received an intravitreal injection of 100 ng of LPS (LPS Escherichia coli 0111:B4, Sigma Aldrich) to induce inflammation. The inflammatory state of the eyes was monitored by slit-lamp microscopy (Phoenix Anterior Segment Slit Lamp), fundus microscopy (Phoenix Micron IV), and optical coherence tomography (Phoenix image-guided OCT) for 72 h post-LPS injection. Slit-lamp was used to image the anterior structures of the rat eye and to assess changes in vasculature, aqueous humor haze, pupil responsiveness, and presence of cellular infiltrates. Anterior segment OCT (ASOCT) was used to assess signs of inflammation in the anterior chamber through anterior chamber flare, pupillary fibrin occlusions, and presence of inflammatory cells. The ASOCT was used only for qualitative evaluation of the inflammatory state. Posterior segment OCT (PSOCT) was used to capture six (6) images around the optic disc (OD) of each eye and the images were used for retinal thickness, inflammatory cell count, and vitreal haze evaluation. Retinal thickness was measured using ImageJ (v.1.8.0) from four (4) OCT images close to the optic disk. Inflammatory cells were manually quantified from the same OCT images used for retinal thickness measurements.

A short description of data set [2]: Composition of pellets as made and after release. The format is physicochemical. As to conditions: Supp Fig 5. Here is the method:
Release studies were carried out using different media, including PBS (pH 7.4, Gibco), 100% FBS (Sigma, F1051), 1% FBS in PBS pH 7.4, and 3.6% BSA (Sigma, A7906) in PBS (pH 7.4, Gibco). Sink conditions were maintained across all of the in vitro release studies through frequent buffer changes, ensuring that the released drug concentration was always at least five times lower than the solubility limit of the drug in the release buffer being used in order to avoid changes in release kinetics caused by drug levels approaching their saturation limit. Samples were incubated in release medium at 37 °C under constant agitation on an orbital shaker at 115 rpm (VWR). At designated timepoints, sampling was performed by complete removal of medium and replenishment with fresh buffer. Sampling timepoints included 24 h and then every 3–4 days thereafter. For PBS release conditions, samples were analyzed directly. For samples with protein (100% FBS, 1% FBS, 3.6% BSA), protein was precipitated by addition of acetonitrile. Samples were vortexed and centrifuged to separate extracted drug from precipitated protein. The supernatant was then analyzed for drug concentration by HPLC.
Supplementary Figure 5 Proportion of dexamethasone in different forms, namely Dex-TEG-Dex, Dex-TEG, and free Dex (Dex – dexamethasone, TEG – triethylene glycol) in heat-molded pellets as-made and […]
the dimer following submersion in release buffer for 14 days. N=4 samples for as made and N=3 samples for 14 days. Data represent the mean ± standard deviation.
(1 picture or pasted object on this page, not shown here)

Data set [3] can be described thus: Tolerability study of intravitreal implants (IOP, IR fundus imaging, histopathology). The data set is classed as in vivo. How it is done:
Tolerability study. The tolerability study was conducted at Absorption Systems California (San Diego, CA, USA) under the same animal care and ethics guidelines and approval systems as indicated above in the Pharmacodynamics section. […] Animals were anesthetized with intramuscular ketamine hydrochloride (30–32 mg/kg) and xylazine (5–10 mg/kg), with glycopyrrolate (0.01–0.02 mg/kg, intramuscular) administered concurrently. Eyes were prepped with 1–2 drops of topical proparacaine hydrochloride (0.5%). Prior to implant or sham treatment, eyes received one drop of 10% phenylephrine and 1% tropicamide. 5% betadine solution was used to clean the eye and surrounding area. Group 1 underwent a sham injection procedure, while Group 2 and Group 3 were administered 2× and 3× 30 G × 6 mm Dex-TEG-Dex implants via intravitreal injection, respectively. […] IOP measurements were performed on both eyes at baseline and designated timepoints up to 52 weeks thereafter using a pneumotonometer. Eyes received 1–2 drops of topical proparacaine hydrochloride (0.5%) prior to IOP measurements, and measurements were taken at approximately the same time of day (±2 h). Wide angle infrared (IR) imaging was performed at baseline and at designated timepoints using a Heidelberg Spectralis® imaging platform. Prior to imaging, eyes were dilated with 1 drop each of 10% phenylephrine and 1% tropicamide. […] Animals were euthanized via pentobarbital overdose (150 mg/kg, intravenous).
Histopathology. […] Eyes were then transferred to 70% ethanol. Eyes were embedded in paraffin and sectioned using a microtome. Five sections were generated from each eye and stained with hematoxylin and eosin (H&E). All stained sections were microscopically evaluated by an ACVP veterinary pathologist.

The nature of data set [4]: 3-point bend test of extruded rods. The format is physicochemical. As to conditions: Fig 2c. The text has this: Extruded rods of ~300 µm diameter and 8 mm length (6 mm span on testing apparatus) were subjected to a 3-point bend test using an Instron uniaxial servo-hydraulic testing machine (Instron Model 8501) with a 2.5 N load cell and cross-head speed of 0.8 mm/min.

[5] abbreviates: pellets after release in 100% FBS, t=14d.

Several values for one entry are separate records, joined by “and”; a condition that tells them apart may be missing. Equal values may be shown once.

`C[C@@H]1C[C@H]2[C@@H]3CCC4=CC(=O)C=C[C@]4(C)[C@@]3(F)[C@@H](O)C[C@]2(C)[C@@]1(O)C(=O)COC(=O)OCCOCCOCCOC(=O)OCC(=O)[C@@]1(O)[C@H](C)C[C@H]2[C@@H]3CCC4=CC(=O)C=C[C@]4(C)[C@@]3(F)[C@@H](O)C[C@@]21C` [Dex-TEG-Dex]: the “Retinal Thickness (µm)” value in data set [1] (0h) was 298 µm and 279 µm and 272 µm and 275 µm and 314 µm and 300 µm and 293 µm and 294 µm; in data set [1] (24h) it was 300 µm and 269 µm and 279 µm and 286 µm and 296 µm and 289 µm and 292 µm; in data set [1] (48h), 279 µm and 296 µm and 265 µm and 264 µm and 275 µm and 261 µm and 294 µm and 266 µm; in data set [1] (72h) it was 245 µm and 261 µm and 250 µm and 249 µm and 236 µm and 241 µm and 247 µm and 259 µm; in data set [1] (-24h) it was 244 µm and 248 µm and 257 µm and 251 µm and 238 µm and 240 µm. Moreover, the “effect on LPS-induced inflammatory response” value in data set [1] (intravitreal 23 G implant, 24 h before LPS, cellular infiltrate and retinal thickness by OCT, 72 h) is “acutely suppress the LPS-induced inflammatory response”. In addition, the “Proportion of dexamethasone as Dex-TEG-Dex” value in data set [2] (heat-molded pellets as-made, t=0) is 99.32 and 99.47 and 99.36 and 99.44; in data set [2] (setting [5]), 99.38 and 99.32 and 99.44. The “Proportion of dexamethasone as Dex-TEG” value in data set [2] (setting [5]) is 0.046 and 0.04. The IR fundus images entry in data set [3] (two and three implant eyes, baseline and 3, 6, 9, 12 months) is recorded as “unremarkable”. Further, in data set [3] (two or three 30 G × 6 mm implants intravitreally, 12 months), the tolerability entry is “well tolerated”. Also, in data set [3] (two or three 30 G × 6 mm implants, H&E), the histopathology findings entry is “no microscopic or macroscopic findings”. Moreover, the “Flexural Modulus” value in data set [4] was 2.45 GPa and 2.68 GPa and 3.21 GPa and 3.29 GPa and 3.01 GPa.
